One assay deals with Fms kinase (Homo sapiens, UniProt P07333). Nature of the assay: Fms kinase biochemical activity assay (AlphaScreen, biotin-(E4Y)10 phosphorylation). The settings on record: 100 μM ATP; read-out: Biochemical Inhibition IC50 Fms. The method, then: In one assay the biochemical activity IC50 values are determined with respect to inhibition of Fms kinase activity, where inhibition of phosphorylation of a peptide substrate is measured as a function of compound concentration. Compounds to be tested, dissolved in DMSO (1 μL), are added to a white 384-well plate (Costar #3705). Working stocks of Fms kinase (Invitrogen #PV3249), biotin-(E4Y)10 substrate (Upstate Biotech, Cat#12-440), and ATP (Sigma, Cat#A-3377) are prepared in 25 mM Hepes pH 7.5, 0.5 mM MgCl2, 2 mM MnCl2, 2 mM DTT, 0.01% BSA, and 0.01% Tween-20. All components are added to the 384-well plate for a final concentration of 1 ng/well Fms, 30 nM biotin-(E4Y)10 (Upstate Biotechnology) and 100 μM ATP in a volume of 20 μL. Each sample is at 5% DMSO. The plate is then incubated for 20 minutes at 30° C. Just before use, working stocks of donor and acceptor beads from the AlphaScreen PY20 Detection Kit (PerkinElmer, Cat#676601M) are prepared in 25 mM Hepes pH 7.5, pH 7.4, 100 mM EDTA, 0.01% BSA. To stop the reaction, the plate is uncovered in the dark and 5 μL of Donor Beads solution (Streptavidin beads) is added to each well. The plate is incubated at room temperature for 20 minutes. Five microliters of Acceptor Beads solution (PY20 coated beads) are then added to each well. The final concentration of each bead is 10 μg/mL. The plates are incubated at room temperature for 60 minutes. Fluorescence signal is recorded on the Envision reader. Phosphorylated substrate results in binding of the PY20 antibody and association of the donor and acceptor beads such that signal correlates with kinase activity. The signal vs. compound concentration is used to determine the IC50.
Fms kinase, sequence (P07333 20-972): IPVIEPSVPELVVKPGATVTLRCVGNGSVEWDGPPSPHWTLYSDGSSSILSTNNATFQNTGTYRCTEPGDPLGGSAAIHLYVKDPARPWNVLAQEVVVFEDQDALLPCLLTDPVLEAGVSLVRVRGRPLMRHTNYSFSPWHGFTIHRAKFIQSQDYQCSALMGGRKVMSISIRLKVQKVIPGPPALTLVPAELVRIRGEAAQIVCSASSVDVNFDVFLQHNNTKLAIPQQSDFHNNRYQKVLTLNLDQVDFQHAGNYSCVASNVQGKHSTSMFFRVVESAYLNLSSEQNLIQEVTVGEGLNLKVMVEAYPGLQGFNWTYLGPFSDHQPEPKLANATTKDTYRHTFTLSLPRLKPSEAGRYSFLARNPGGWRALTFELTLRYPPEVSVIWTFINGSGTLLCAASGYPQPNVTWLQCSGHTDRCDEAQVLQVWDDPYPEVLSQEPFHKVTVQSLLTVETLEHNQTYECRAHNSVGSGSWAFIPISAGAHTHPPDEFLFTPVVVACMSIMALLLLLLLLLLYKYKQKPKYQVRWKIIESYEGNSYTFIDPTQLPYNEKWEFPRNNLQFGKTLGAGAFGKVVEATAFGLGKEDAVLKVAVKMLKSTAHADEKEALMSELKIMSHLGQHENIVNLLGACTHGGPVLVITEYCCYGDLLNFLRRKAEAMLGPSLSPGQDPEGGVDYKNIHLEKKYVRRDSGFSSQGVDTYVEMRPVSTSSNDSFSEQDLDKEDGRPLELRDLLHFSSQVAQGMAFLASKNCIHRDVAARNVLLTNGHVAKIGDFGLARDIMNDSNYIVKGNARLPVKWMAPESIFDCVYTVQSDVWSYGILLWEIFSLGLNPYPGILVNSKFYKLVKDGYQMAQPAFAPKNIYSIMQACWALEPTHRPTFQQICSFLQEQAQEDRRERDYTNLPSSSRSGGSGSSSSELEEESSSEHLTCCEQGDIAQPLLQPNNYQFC

Another assay concerns the target CYP2D6 (Homo sapiens, UniProt P10635). Nature of the assay: CYP2D6 inhibition (fluorescent substrate AMMC). Type of assay: in vitro ADME. The note with it: read-out: Cyp IC50 2D6. The method, then: CYP (Cytochrome P450) enzymes are the major drug metabolizing enzymes present in the liver. The inhibition of CYP enzyme activity (IC50) for each of CYP1A2, CYP2C19, CYP2C9, CYP2D6, CYP3A4(BFC) and CYP3A4(BQ) is determined for compounds, where inhibition of metabolism of a known substrate leads to a decrease in the fluorescence of the metabolized product. The fluorescence of the product is monitored as a function of compound concentration. Compounds are dissolved in DMSO to a concentration of 100 mM. These are diluted 1 μL into 82 μL of acetonitrile. An 11 μL aliquot of this solution is then added to 204 μL of cofactor mix (1.3% NADPH Regeneration system Solution A, 1.04% NADPH Regeneration system Solution B from BD Biosciences, 5% acetonitrile and 0.05% DMSO). These are then serially diluted 1:1 (160 μL to 160 μL co-factor mix) for a total of 10 points. A 10 μL aliquot of this final mixture is dispensed into 384 well assay plates and incubated for 10 minutes at 37° C. […] Assay plates are incubated at 37° C. (CYP1A2-15 min; CYP2C9-45 min; CYP2C19, 2D6 and 3A4-30 min) and read in a Tecan Safire 2 plate reader (CYP1A2, 2C19 and 3A4 409 ex/460 em; CYP2C9 and 2D6 409 ex/530 em). The signal versus compound concentration is used to determine the IC50. The enzymes and substrates for this assay are obtained from BD Biosciences.

For another assay, the target named is TrkA kinase (Homo sapiens, UniProt P04629). The assay can be described thus: TrkA kinase biochemical activity assay (AlphaScreen). The note with it: 100 μM ATP; read-out: Biochemical Inhibition IC50 TrkA. The method, then:
In one assay the biochemical activity IC50 values are determined with respect to inhibition of TrkA kinase activity, where inhibition of phosphorylation of a peptide substrate is measured as a function of compound concentration. Compounds to be tested, dissolved in DMSO (1 μL), are added to a white 384-well plate (Costar #3705). Working stocks of TrkA kinase (UBI), biotin-(E4Y)10 substrate (Upstate Biotech, Cat#12-440), and ATP (Sigma, Cat#A-3377) are prepared in 25 mM Hepes pH 7.5, 10 mM MnCl2, 1 mM DTT, 0.01% BSA, and 0.01% Tween-20. All components are added to the 384-well plate for a final concentration of 1 ng/well TrkA, 30 nM biotin-(E4Y)10 and 100 μM ATP in a volume of 20 μL. Each sample is at 5% DMSO. The plate is shaken for 1 minute at 1200 rpm, spun for 1 minute at 1000 rpm, then incubated for 40 minutes at room temperature. Just before use, working stocks of donor and acceptor beads from the AlphaScreen PY20 Detection Kit (PerkinElmer, Cat#676601M) are prepared in 25 mM Hepes pH 7.5, 100 mM EDTA. 0.01% BSA. Donor Beads solution (Streptavidin beads) is added (5 μL) to each well to final bead concentration of 10 μg/mL. The plate is incubated at room temperature for 20 minutes. Acceptor Beads solution (PY20 coated beads) are then added to each well (5 μL) to a final concentration of bead at 10 μg/mL. The plates are incubated at room temperature for 60 minutes. Fluorescence signal is recorded on the Envision reader. Phosphorylated substrate results in binding of the PY20 antibody and association of the donor and acceptor beads such that signal correlates with kinase activity. The signal vs. compound concentration is used to determine the IC50. Similar assays are used for TrkB and Trk C kinase.
(Alpha assays give light when donor and acceptor beads are brought close together.)

The results in this text go back to patent publication US8901118B2, “Compounds and methods for kinase modulation, and indications therefor” (Plexxikon Inc., priority 2010, dated 2014).

Bounds are passed on as bounds.

Broadly, the IC50 is the concentration at which inhibition is half-maximal.

TrkA kinase, sequence (P04629 33-796): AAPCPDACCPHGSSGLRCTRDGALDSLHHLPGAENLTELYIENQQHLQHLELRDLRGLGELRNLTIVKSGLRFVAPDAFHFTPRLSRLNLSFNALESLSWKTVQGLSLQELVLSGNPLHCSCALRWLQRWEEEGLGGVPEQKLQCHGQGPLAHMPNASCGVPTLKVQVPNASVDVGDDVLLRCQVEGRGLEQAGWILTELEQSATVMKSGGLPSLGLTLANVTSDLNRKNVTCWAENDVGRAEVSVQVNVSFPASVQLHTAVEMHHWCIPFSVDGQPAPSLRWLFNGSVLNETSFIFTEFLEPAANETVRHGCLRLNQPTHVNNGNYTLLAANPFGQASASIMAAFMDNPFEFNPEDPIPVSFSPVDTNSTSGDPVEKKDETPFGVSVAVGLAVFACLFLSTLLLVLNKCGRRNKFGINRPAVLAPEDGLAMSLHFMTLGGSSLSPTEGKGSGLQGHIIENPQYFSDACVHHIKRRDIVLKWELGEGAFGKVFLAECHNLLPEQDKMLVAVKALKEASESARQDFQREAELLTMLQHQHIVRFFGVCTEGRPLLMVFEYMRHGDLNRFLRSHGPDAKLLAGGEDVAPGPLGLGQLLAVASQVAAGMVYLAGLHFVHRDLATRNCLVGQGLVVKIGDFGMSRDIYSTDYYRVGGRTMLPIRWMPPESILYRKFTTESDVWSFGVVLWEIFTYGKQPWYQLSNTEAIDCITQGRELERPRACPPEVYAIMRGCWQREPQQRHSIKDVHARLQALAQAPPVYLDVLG
CYP2D6, sequence (P10635 whole entry): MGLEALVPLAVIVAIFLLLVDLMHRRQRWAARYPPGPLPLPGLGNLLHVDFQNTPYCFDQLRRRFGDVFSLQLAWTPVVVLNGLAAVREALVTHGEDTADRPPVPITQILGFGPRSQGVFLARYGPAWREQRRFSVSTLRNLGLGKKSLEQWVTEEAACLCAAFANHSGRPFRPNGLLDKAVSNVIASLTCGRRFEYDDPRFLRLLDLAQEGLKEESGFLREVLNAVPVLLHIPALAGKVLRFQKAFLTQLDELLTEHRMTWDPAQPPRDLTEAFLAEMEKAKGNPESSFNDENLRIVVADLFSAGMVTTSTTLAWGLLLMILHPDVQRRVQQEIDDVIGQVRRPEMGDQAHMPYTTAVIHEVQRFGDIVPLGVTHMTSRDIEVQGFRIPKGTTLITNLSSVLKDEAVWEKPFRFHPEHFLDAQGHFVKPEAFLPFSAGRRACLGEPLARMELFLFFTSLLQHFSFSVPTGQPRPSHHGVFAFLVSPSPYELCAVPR

Consider `CC1CCC(Nc2ncc(Cc3c[nH]c4ncc(Cl)cc34)cn2)CC1` (stereo not shown) [Compound P-3009, [5-(5-Chloro-1H-pyrrolo[2,3-b]pyridin-3-ylmethyl)-pyrimidin-2-yl]-(4-methyl-cyclohexyl)-amine], for which the values for the half-maximal inhibitory concentration (IC50) at Fms kinase and on CYP2D6 were below 0.1 µM and above 10 µM, respectively.

Turning to `Cc1cnc2[nH]cc(Cc3cnc(Nc4ccc(F)cc4)nc3)c2c1` [Compound P-3010, (4-Fluoro-phenyl)-[5-(5-methyl-1H-pyrrolo[2,3-b]pyridin-3-ylmethyl)-pyrimidin-2-yl]-amine], the concentration for half-maximal inhibition (IC50) at Fms kinase is below 0.01 µM; on TrkA kinase, below 1 µM; at CYP2D6, above 10 µM.

For the compound `Clc1ccc(Nc2ncc(Cc3c[nH]c4ncc(Cl)cc34)cn2)cc1` [Compound P-3011, (4-Chloro-phenyl)-[5-(5-chloro-1H-pyrrolo[2,3-b]pyridin-3-ylmethyl)-pyrimidin-2-yl]-amine], the IC50 is below 0.01 µM on Fms kinase, above 1 µM at TrkA kinase and above 10 µM at CYP2D6.

With `Fc1ccc(Nc2ncc(Cc3c[nH]c4ncc(Cl)cc34)cn2)cc1` [Compound P-3012, [5-(5-Chloro-1H-pyrrolo[2,3-b]pyridin-3-ylmethyl)-pyrimidin-2-yl]-(4-fluoro-phenyl)-amine], the concentration for half-maximal inhibition (IC50) is below 0.01 µM on Fms kinase, above 1 µM at TrkA kinase and above 10 µM at CYP2D6.

As for `Fc1nc(NC2CCC(F)(F)CC2)ccc1Cc1c[nH]c2ncc(Cl)cc12` [Compound P-3013, [5-(5-Chloro-1H-pyrrolo[2,3-b]pyridin-3-ylmethyl)-6-fluoro-pyridin-2-yl]-(4,4-difluoro-cyclohexyl)-amine], the concentration for half-maximal inhibition (IC50) at Fms kinase is below 0.01 µM; on CYP2D6 it was above 10 µM.

On to `Fc1ccccc1Nc1ncc(Cc2c[nH]c3ncc(Cl)cc23)cn1` [Compound P-3014, [5-(5-Chloro-1H-pyrrolo[2,3-b]pyridin-3-ylmethyl)-pyrimidin-2-yl]-(2-fluoro-phenyl)-amine], for which the IC50 on Fms kinase is below 0.01 µM; at TrkA kinase, above 1 µM.

Consider `Clc1cnc2[nH]cc(Cc3cnc(Nc4ccccc4Cl)nc3)c2c1` [Compound P-3015, (2-Chloro-phenyl)-[5-(5-chloro-1H-pyrrolo[2,3-b]pyridin-3-ylmethyl)-pyrimidin-2-yl]-amine], for which the figures for the IC50 at Fms kinase and at TrkA kinase were below 0.01 µM and above 1 µM, respectively.

As to `COc1ccc(Nc2ccc(C(=O)c3c[nH]c4ncnc(NC(C)(C)C)c34)c(F)n2)cn1` [Compound P-4055, [4-(tert-butylamino)-7H-pyrrolo[2,3-d]pyrimidin-5-yl]-[2-fluoro-6-[(6-methoxy-3-pyridyl)amino]-3-pyridyl]methanone], the half-inhibitory concentration (IC50) is below 0.1 µM at Fms kinase and above 10 µM at CYP2D6.

For the compound `COc1ccc(Nc2ccc(C(=O)c3c[nH]c4ncnc(NC5CCC(F)(F)CC5)c34)c(F)n2)cn1` [Compound P-4056, [4-[(4,4-difluorocyclohexyl)amino]-7H-pyrrolo[2,3-d]pyrimidin-5-yl]-[2-fluoro-6-[(6-methoxy-3-pyridyl)amino]-3-pyridyl]methanone], the IC50 on Fms kinase is below 0.1 µM; on CYP2D6 it was above 10 µM.

As to `O=C(c1ccc(NC2CCC(F)(F)CC2)nc1Cl)c1c[nH]c2ncnc(NCC(F)(F)F)c12` [Compound P-4057, [2-chloro-6-[(4,4-difluorocyclohexyl)amino]-3-pyridyl]-[4-(2,2,2-trifluoroethylamino)-7H-pyrrolo[2,3-d]pyrimidin-5-yl]methanone], the 50% inhibitory concentration (IC50) is below 0.1 µM on Fms kinase, below 1 µM at TrkA kinase and above 10 µM on CYP2D6.

With `CNc1ncnc2[nH]cc(C(=O)c3ccc(NC4CCC(F)(F)CC4)nc3Cl)c12` [Compound P-4058, [2-chloro-6-[(4,4-difluorocyclohexyl)amino]-3-pyridyl]-[4-(methylamino)-7H-pyrrolo[2,3-d]pyrimidin-5-yl]methanone], the values for the concentration for half-maximal inhibition (IC50) on Fms kinase, on TrkA kinase and at CYP2D6 were below 0.1 µM, below 1 µM and above 10 µM, respectively.

For `O=C(c1ccc(NC2CCC(F)(F)CC2)nc1Cl)c1c[nH]c2ncnc(NC3CC3)c12` [Compound P-4059, [2-chloro-6-[(4,4-difluorocyclohexyl)amino]-3-pyridyl]-[4-(cyclopropylamino)-7H-pyrrolo[2,3-d]pyrimidin-5-yl]methanone], the figures for the half-maximal inhibitory concentration (IC50) at Fms kinase, at TrkA kinase and at CYP2D6 were below 0.1 µM, below 0.1 µM and above 10 µM, respectively.

In the case of `CCNc1ncnc2[nH]cc(C(=O)c3ccc(Nc4ccc(C5CC5)nc4)nc3F)c12` [Compound P-4060, [6-[(6-cyclopropyl-3-pyridyl)amino]-2-fluoro-3-pyridyl]-[4-(ethylamino)-7H-pyrrolo[2,3-d]pyrimidin-5-yl]methanone], the IC50 is below 0.01 µM on Fms kinase, below 0.01 µM at TrkA kinase and above 10 µM at CYP2D6.

Take `O=C(c1ccc(NC2CCC(F)(F)CC2)nc1F)c1c[nH]c2ncnc(NCC(F)(F)F)c12` [Compound P-4061, [6-[(4,4-difluorocyclohexyl)amino]-2-fluoro-3-pyridyl]-[4-(2,2,2-trifluoroethylamino)-7H-pyrrolo[2,3-d]pyrimidin-5-yl]methanone]: the IC50 is below 0.1 µM on Fms kinase, below 0.1 µM on TrkA kinase and above 10 µM on CYP2D6.

For the compound `O=C(c1ccc(NC2CCC(F)(F)CC2)nc1F)c1c[nH]c2ncnc(NC3CC3)c12` [Compound P-4062, [4-(cyclopropylamino)-7H-pyrrolo[2,3-d]pyrimidin-5-yl]-[6-[(4,4-difluorocyclohexyl)amino]-2-fluoro-3-pyridyl]methanone], the values for the 50% inhibitory concentration (IC50) on Fms kinase, on TrkA kinase and on CYP2D6 were below 0.01 µM, below 0.01 µM and above 10 µM, respectively.

For the compound `CNc1ncnc2[nH]cc(C(=O)c3ccc(Nc4ccc(OC)nc4)nc3OC)c12` [Compound P-4085, [2-methoxy-6-[(6-methoxy-3-pyridyl)amino]-3-pyridyl]-[4-(methylamino)-7H-pyrrolo[2,3-d]pyrimidin-5-yl]methanone], the concentration for half-maximal inhibition (IC50) at Fms kinase and at TrkA kinase was below 0.01 µM in each case.

As for `CCc1ccc(Nc2ccc(C(=O)c3c[nH]c4ncnc(Nc5ccc(C)nc5)c34)c(F)n2)cn1` [Compound P-4086, [6-[(6-ethyl-3-pyridyl)amino]-2-fluoro-3-pyridyl]-[4-[(6-methyl-3-pyridyl)amino]-7H-pyrrolo[2,3-d]pyrimidin-5-yl]methanone], the concentration for half-maximal inhibition (IC50) was below 1 µM on Fms kinase and below 0.1 µM on TrkA kinase.
